Experimental data: patent US8541373B2, “BChE albumin fusions for the treatment of cocaine abuse” (priority 2009, dated 2013)

Assays:
cocaine [1] = assay: AlbuBChE PK/PD analysis, direct inhibitory effect Emax model (cocaine concentration at 5 min); details: Squirrel monkeys, cocaine at 5 min, approximate estimate
Experimental: In spite of the limited amount of data, an attempt was made to characterize PK/PD relationship. The computer software WinNonlin Professional (Version 4.0.1 Pharsight Corporation, USA) was used. Specifically the direct Inhibitory Effect Emax model was use in which Emax was assumed at AlbuBChE concentration of zero. The model equation can be described as follows: E=Emax*(1−(C/(C+EC50)))
The PD parameter used in the analysis was cocaine plasma concentration at 5 min post-cocaine dose. PK parameters used in the model were AlbuBChE plasma concentrations at 2, 72 and 96 hr post-AlbuBChE dose. Due to the fact that AlbuBChE concentration was not measured at 2 hr post-AlbuBChE dose, the 1st time sample collected was used in the analysis (24 hr post-AlbuBChE dose) with the assumptions that AlbuBChE concentration at 24 hr post AlbuBChE dose may reflect AlbuBChE concentration at 2 hr post AlbuBChE dose.

cocaine [2] = assay: Effect of AlbuBChE pretreatment on cocaine-induced cardiovascular and body temperature changes; assay type: in vivo, cynomolgus monkeys
Experimental: The effect of pretreatment with AlbuBChE prior to cocaine dose on CV parameters was tested on the second group (Group 2) of animals (3 males and 3 females). First baseline CV parameters were recorded on SD 15 after an IM administration of AlbuBChE formulation buffer followed by a single IV administration of saline (cocaine vehicle), 3 hours later. The effect of cocaine on CV parameters was measured on SD 18, on which the animals received a single IM injection of AlbuBChE formulation buffer followed by a single IV dose of cocaine (1 mg/kg, IV), 3 hours later.
The effect of pretreatment with AlbuBChE on cocaine-induced changes in CV parameters was monitored on SD 22. CV parameters were recorded subsequent to a single IM dose of AlbuBChE (15 mg/kg) followed by a single IV dose of cocaine (1 mg/kg), 3 hours later (see Table 21).

[3] = Animal observations in PK/PD study
[4] = 15 mg/kg IM 3 hours before cocaine 1 mg/kg IV

For AlbuBChE, the “AlbuBChE serum concentration that may result in 50% decrease in cocaine concentration (EC50)” value (cocaine [1]) was ~0.4 µg/mL, the “Maximum blood pressure after cocaine” value (cocaine [2]; [4]) was “decreased” and the “Truncation of time to reversal of blood pressure effect” value (cocaine [2]; [4]) was 4.5 fold. For the same substance, the “Time to reversal of cocaine-induced increase in mean arterial blood pressure” value (cocaine [2]; 15 mg/kg IM 3 hours before cocaine 1 mg/kg IV (77 minutes with cocaine alone)) was 17 min, the “Body temperature after cocaine” value (cocaine [2]; 15 mg/kg IM pre-treatment, cocaine 1 mg/kg IV, base line 38° C. (38.7° C. with cocaine alone)) was 38.3 °C and the “Cocaine-induced increase in heart rate” value (cocaine [2]; 15 mg/kg pre-treatment, cocaine 1 mg/kg IV (70% with cocaine alone)) was 30%. For the same substance, the “Time for heart rate to return to baseline after cocaine dose” value (cocaine [2]; 15 mg/kg pre-treatment, cocaine 1 mg/kg IV (2 hours with cocaine alone)) was 30 min, the “Peak heart rate after cocaine” value (cocaine [2]; 15 mg/kg pre-treatment, cocaine 1 mg/kg IV, baseline 140 (240 with cocaine alone)) was 182 beats/min and the “Cocaine-related observations (hyperactivity, increased respiratory rate with abdominal breathing)” value ([3]; pre-treatment 0.2 to 5 mg/kg, cocaine 1 mg/kg) was “not observed for five days”. The “Clinical or cageside observations associated with AlbuBChE” value ([3]; single IM 0.2, 1 or 5 mg/kg) was “no clinical or cageside observations”, the “Deaths during the study” value ([3]; single IM 0.2, 1 or 5 mg/kg) was “no deaths” and the Tolerability ([3]; single IM dose of 0.2, 1 or 5 mg/kg) was “well tolerated”.
